Laboratory results as given in ChEMBL document CHEMBL1201862, “PubChem BioAssay data set” (2004).
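Tested at 5 concentrations; 48 h exposure; 96-well plates; endpoints linearly interpolated, else capped at highest concentration. At the GI50, growth is halved.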 Activity calls are given as the source filed them. Rule as the data show it: active = GI50 up to about 1.1 µM and inactive = higher.

Assays:
Experiment in all cases: NCI tumour cell line growth inhibition, 48 h
[1] = system: 786-0
[2] = system: ACHN
[3] = system: EKVX
[4] = system: HCC 2998
[5] = system: HOP-62
[6] = system: HOP-92
[7] = system: IGROV-1
[8] = system: M14
[9] = system: NCI-H226
[10] = system: NCI-H23
[11] = system: OVCAR-4
[12] = system: OVCAR-5
[13] = system: RPMI-8226
[14] = system: RXF 393
[15] = system: SK-MEL-2
[16] = system: SNB-75
[17] = system: SR
[18] = system: SW-620
[19] = system: MCF7

Measured: GI50

CNC(=O)OCc1nc(SSc2nc(COC(=O)NC)c(COC(=O)NC)n2C)n(C)c1COC(=O)NC
inactive: [1] > 100 µM | [2] > 100 µM | [3] > 100 µM | [4] > 100 µM | [5] > 100 µM | [6] > 100 µM | [7] > 100 µM | [8] > 100 µM | [9] > 100 µM | [10] > 100 µM | [11] > 100 µM | [12] > 100 µM | [13] > 100 µM | [14] > 100 µM | [15] > 100 µM | [16] > 100 µM | [17] > 100 µM | [18] > 100 µM

C=CCCCCCCC#CCCCCCCCCCC[C@@H]1C(=O)O[C@H](C)[C@@H]1O.CCCCCCCCC#CCCCCCCCCCC[C@@H]1C(=O)O[C@H](C)[C@@H]1O
inactive: [1] 15.8 µM | [2] 17.7 µM | [3] 16.8 µM | [4] 23.6 µM | [5] 16 µM | [6] 10.5 µM | [7] 15.7 µM | [8] 17.3 µM | [19] 15.4 µM | [9] 27.1 µM | [10] 8.39 µM | [11] 16.4 µM | [12] 59.2 µM | [13] 16.5 µM | [14] 11.4 µM | [15] 14.7 µM | [16] 16.7 µM | [18] 15.2 µM

CCCCCCCCCCCC(=O)C1=C(O)CC(O)CC1=O (stereo not drawn)
inactive: [1] > 100 µM | [2] 99.8 µM | [3] > 100 µM | [4] > 100 µM | [5] > 100 µM | [6] > 100 µM | [7] > 100 µM | [8] > 100 µM | [9] 68.7 µM | [10] > 100 µM | [11] > 100 µM | [12] 68.7 µM | [13] 87.3 µM | [14] > 100 µM | [15] > 100 µM | [16] > 100 µM | [17] > 100 µM | [18] > 100 µM

CC1=CC=NN2C(=O)[C@H](C)C2C1 (stereo partly drawn)
inactive: [1] > 100 µM | [2] > 100 µM | [3] > 100 µM | [4] > 100 µM | [5] > 100 µM | [6] > 100 µM | [7] > 100 µM | [8] > 100 µM | [9] > 100 µM | [10] > 100 µM | [11] > 100 µM | [12] > 100 µM | [13] > 100 µM | [14] > 100 µM | [15] > 100 µM | [16] > 100 µM | [17] > 100 µM | [18] > 100 µM

N#CC1CC2(CCN1C(=O)c1ccccc1)OCCO2 (stereo not drawn)
inactive: [1] > 100 µM | [2] > 100 µM | [3] > 100 µM | [4] > 100 µM | [5] > 100 µM | [6] > 100 µM | [7] > 100 µM | [8] > 100 µM | [9] > 100 µM | [10] > 100 µM | [11] > 100 µM | [12] > 100 µM | [13] > 100 µM | [14] > 100 µM | [15] > 100 µM | [16] > 100 µM | [17] > 100 µM | [18] > 100 µM

O=C1c2ccccc2C(=O)c2c(NCC3CO3)cccc21 (stereo not drawn)
inactive: [1] 12.2 µM | [2] 8.67 µM | [3] 17.5 µM | [4] > 100 µM | [5] > 46.1 µM | [6] 94.4 µM | [7] 17.4 µM | [8] 11.3 µM | [19] 1.31 µM | [9] > 100 µM | [10] 9.44 µM | [11] > 86.1 µM | [12] > 71.3 µM | [13] 33.2 µM | [14] 7.66 µM | [15] 17.2 µM | [16] > 100 µM | [18] 5.57 µM
